These results are taken from paper PMC9103351, “Effects of the Bark Resin Extract of Garcinia nigrolineata on Chronic Stress-Induced Memory Deficit in Mice Model and the In Vitro Monoamine Oxidases and β-Amyloid Aggregation Inhibitory Activities of Its Prenylated Xanthone Constituents” (Molecules, 2022).

Common to all, as to format: in vivo, ICR mice
The subject of assay [1] is UCMS mice. As to the kind of experiment: Y-maze test in UCMS mice. The settings on record: 100 mg/kg/day p.o., vs vehicle-treated UCMS group. As to the method: (§1) Five-week-old male ICR mice (weight: 20–30 g), which were acquired from Nomura Siam International (Pathumwan, Bangkok, Thailand), were maintained at the Animal Unit of the Faculty of Pharmaceutical Sciences, Khon Kaen University. Mice were cared for in accordance with the Guiding Principles for the Care and Use of Animals (NIH Publications No. 80–23, revised in 2011). The facilities sustained a 12 h light/dark cycle, constant temperature (22 ± 2 °C), and humidity (45 ± 2%), with full access to food and drink. The current research was authorized by the Animal Ethics Committee for Use and Care of Khon Kaen University (IACUC-KKU-121/64)
(§2) Mice in the stress groups received mild stressors for 6 weeks. […]
Y-maze test was used to evaluate spontaneous alternation related to a sudden recall, a performance that was previously described by Kraeuter et al. with some modification. […] Mice were allowed to explore the maze for 4 min, during which their number and sequence of arms visits and spontaneous alternations were recorded. […] The measure of the animal recalling a memory is the percentage alternation, which was calculated by the following equation:% Alternation = [(Number of alternations)/(Total arm entries − 2)] × 100

The test system of assay [2] is UCMS mice. As to the kind of experiment: Novel Object Recognition Test (NORT) in UCMS mice. To be noted: 100 mg/kg/day p.o. As to the method:
as §1, §2
The NORT is used to investigate the spatial recognition memory associated with the ability to discriminate between two sets of objects that differ in texture, color, and shape. […] The mouse was free to explore the objects for 5 min and the total time spent exploring each object and the percentage discrimination index were recorded. […] The exploration ratio was calculated according to the following equation:% Discrimination index = [(TN − TF)/(TN + TF)] × 100 where, TN = time devoted to the novel object, TF = time devoted to the familiar object.

Assay [3] concerns UCMS mice. Briefly: Lipid peroxidation (TBARs, MDA) in frontal cortex and hippocampus of UCMS mice. The settings on record: 100 mg/kg/day. As to the method:
as §1, §2
The lipid peroxidation was measured in the homogenates of the hippocampus and frontal cortex by using TBARs assay as previously described by Khamphukdee et al.. […] The intensity of the pink-colored complex MDA-TBA condensation indicated the extent of a lipid peroxidation, and their protein contents were quantified by the Bradford assay. The absorbance of the MDA-TBA complex was measured by UV/Visible spectrophotometer (Perkin Elmer Inc., Waltham, MA, USA) at 532 nm. Levels of the MDA were calculated from the MDA standard and presented as nmol MDA/mg protein.

For vitamin E, in the assay with UCMS mice [1], the “percentage of spontaneous alternation (Y-maze)” value was “significantly increased”. The “discrimination index performance (NORT test phase)” value in the assay with UCMS mice [2] was “significantly ameliorated”. For the same substance, in the assay on UCMS mice [3], the “UCMS-induced lipid peroxidation (MDA level)” value is given as “significant neuroprotection”.
